Test results from the supplement of paper PMC12463676, “Small-molecule dissolution of stress granules by redox modulation benefits ALS models” (Nature Chemical Biology, 2025).

Experiments:
lipoamide = compound: NC(=O)CCCCC1CCSS1 [lipoamide]; test: thermal stability z-score vs DMSO; higher = more thermally stabilized by treatment; settings: HeLa, lipoamide concentration 100 µM
Procedure: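 Cellular thermal proteome profiling in HeLa cells. Cells were treated with 100 µM lipoamide for 1 h, with or without 1 mM arsenate for a further 1 h, then heated to ten temperatures (37-66.3 °C), and soluble protein was quantified by TMT mass spectrometry relative to 0.1% DMSO controls. The thermal stability score (sum of log2 fold changes minus the abundance score) was transformed to a z-score; mean of n = 3 experiments.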

potassium arsenate = compound: O=[As]([O-])(O)O.[K+] [potassium arsenate]; test: as above; settings: HeLa; arsenate concentration 1 mM
Procedure: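 Cellular thermal proteome profiling in HeLa cells treated with 1 mM arsenate for 1 h (DMSO pretreatment), heated to ten temperatures (37-66.3 °C). Soluble protein was quantified by TMT mass spectrometry relative to DMSO controls; the thermal stability score was transformed to a z-score; mean of n = 3 experiments.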

[1] = arsenate co-treatment: 1 mM arsenate 1 h
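Note: each temperature applied for 3 min, abundance score taken as mean log2 fold change at the two lowest temperatures, z-score obtained by mean subtraction and division by SD.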

UniProt Q92797, sequence (Q92797 whole entry): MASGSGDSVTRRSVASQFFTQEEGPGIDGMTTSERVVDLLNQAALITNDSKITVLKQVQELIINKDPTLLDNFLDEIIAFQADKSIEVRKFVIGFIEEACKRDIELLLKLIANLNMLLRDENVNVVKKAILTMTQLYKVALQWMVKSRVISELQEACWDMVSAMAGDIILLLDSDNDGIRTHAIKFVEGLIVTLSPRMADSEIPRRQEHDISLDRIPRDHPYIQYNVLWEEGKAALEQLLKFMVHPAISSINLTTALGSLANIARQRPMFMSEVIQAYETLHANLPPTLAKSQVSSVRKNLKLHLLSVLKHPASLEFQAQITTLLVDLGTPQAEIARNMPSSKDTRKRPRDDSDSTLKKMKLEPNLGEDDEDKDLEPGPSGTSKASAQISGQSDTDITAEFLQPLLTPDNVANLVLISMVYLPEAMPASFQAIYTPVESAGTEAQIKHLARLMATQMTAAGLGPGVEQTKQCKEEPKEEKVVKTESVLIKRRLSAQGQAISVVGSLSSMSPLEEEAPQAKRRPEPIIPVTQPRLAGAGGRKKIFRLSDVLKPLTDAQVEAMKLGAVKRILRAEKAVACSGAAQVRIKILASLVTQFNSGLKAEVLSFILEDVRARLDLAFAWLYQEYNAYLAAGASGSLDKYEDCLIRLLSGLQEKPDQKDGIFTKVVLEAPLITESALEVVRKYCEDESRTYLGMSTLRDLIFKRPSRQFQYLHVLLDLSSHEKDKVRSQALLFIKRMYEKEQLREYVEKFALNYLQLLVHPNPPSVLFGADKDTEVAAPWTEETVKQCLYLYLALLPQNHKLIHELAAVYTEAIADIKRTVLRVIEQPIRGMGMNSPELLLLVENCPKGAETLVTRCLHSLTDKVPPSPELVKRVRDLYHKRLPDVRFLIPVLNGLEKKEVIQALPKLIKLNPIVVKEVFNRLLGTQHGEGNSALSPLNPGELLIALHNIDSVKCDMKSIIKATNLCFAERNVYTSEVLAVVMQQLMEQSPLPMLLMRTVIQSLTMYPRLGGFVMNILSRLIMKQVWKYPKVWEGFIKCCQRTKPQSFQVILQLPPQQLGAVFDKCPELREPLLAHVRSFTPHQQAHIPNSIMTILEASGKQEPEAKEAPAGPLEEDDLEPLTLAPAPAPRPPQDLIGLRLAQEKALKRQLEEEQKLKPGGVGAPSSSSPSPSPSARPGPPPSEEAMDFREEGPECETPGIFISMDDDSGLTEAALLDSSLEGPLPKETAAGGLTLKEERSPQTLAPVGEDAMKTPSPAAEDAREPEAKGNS
UniProt O15056, sequence (O15056 whole entry): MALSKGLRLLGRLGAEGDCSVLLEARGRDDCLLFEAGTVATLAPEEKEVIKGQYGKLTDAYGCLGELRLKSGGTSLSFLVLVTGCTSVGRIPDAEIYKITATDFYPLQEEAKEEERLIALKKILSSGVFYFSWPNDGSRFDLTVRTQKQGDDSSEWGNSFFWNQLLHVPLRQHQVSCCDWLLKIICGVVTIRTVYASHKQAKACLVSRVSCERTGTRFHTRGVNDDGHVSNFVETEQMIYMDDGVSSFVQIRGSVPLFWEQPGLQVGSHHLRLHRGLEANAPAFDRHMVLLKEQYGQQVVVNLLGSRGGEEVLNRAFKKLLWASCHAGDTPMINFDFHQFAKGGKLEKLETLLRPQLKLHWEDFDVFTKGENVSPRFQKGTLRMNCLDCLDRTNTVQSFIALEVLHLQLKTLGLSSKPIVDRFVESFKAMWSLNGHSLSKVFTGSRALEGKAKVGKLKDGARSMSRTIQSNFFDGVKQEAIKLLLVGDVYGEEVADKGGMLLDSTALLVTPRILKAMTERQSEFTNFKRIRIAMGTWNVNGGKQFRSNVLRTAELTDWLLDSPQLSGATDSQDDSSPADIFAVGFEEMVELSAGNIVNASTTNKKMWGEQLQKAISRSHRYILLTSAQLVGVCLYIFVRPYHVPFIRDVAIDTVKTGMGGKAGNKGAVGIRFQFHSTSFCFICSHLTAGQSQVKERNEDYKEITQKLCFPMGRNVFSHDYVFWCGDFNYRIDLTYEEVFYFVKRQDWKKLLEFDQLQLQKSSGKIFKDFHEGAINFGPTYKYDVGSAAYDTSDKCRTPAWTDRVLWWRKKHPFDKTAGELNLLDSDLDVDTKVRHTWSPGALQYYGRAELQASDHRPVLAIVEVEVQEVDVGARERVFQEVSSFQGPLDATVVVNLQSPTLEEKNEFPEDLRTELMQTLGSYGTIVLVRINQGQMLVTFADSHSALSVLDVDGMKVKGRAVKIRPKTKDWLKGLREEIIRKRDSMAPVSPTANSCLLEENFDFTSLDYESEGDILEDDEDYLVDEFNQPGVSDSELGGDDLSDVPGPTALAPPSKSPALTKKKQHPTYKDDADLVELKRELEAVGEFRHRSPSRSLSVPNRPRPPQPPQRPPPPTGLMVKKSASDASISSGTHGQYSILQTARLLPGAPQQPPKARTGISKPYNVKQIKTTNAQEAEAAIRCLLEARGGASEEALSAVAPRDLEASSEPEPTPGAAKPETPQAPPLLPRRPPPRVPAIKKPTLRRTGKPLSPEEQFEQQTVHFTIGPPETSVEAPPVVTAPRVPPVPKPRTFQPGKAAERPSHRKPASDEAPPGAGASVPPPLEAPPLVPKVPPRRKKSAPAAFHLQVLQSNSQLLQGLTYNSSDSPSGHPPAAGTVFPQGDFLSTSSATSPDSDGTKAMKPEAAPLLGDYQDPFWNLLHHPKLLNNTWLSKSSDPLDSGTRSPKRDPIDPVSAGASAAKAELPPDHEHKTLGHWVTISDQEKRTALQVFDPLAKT
UniProt O43760, sequence (O43760 whole entry): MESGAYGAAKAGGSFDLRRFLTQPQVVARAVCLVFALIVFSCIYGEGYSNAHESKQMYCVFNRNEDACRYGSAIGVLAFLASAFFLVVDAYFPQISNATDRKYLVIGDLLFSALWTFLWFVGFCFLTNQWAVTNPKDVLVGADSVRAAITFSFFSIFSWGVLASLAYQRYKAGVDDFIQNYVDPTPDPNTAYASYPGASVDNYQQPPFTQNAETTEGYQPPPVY
UniProt Q15022, sequence (Q15022 whole entry): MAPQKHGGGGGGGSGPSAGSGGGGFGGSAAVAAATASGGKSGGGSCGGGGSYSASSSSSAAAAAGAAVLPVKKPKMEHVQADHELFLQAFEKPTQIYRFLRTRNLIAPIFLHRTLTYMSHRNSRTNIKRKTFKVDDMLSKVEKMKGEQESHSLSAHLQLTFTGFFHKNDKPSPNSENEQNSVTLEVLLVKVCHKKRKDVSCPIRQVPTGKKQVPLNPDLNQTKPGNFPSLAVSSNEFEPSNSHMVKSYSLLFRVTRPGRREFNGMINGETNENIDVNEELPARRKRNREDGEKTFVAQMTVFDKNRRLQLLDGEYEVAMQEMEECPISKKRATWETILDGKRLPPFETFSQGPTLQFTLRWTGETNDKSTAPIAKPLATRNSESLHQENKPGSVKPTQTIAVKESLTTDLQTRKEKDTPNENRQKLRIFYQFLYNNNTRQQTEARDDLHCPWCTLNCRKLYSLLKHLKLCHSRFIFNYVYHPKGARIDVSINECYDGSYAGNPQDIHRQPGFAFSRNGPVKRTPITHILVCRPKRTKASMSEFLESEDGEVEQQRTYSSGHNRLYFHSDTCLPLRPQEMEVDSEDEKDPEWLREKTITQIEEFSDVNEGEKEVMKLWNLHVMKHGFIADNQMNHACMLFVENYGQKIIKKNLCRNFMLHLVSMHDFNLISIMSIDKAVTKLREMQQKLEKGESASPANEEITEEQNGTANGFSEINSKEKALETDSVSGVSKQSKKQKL
UniProt Q15527, sequence (Q15527 whole entry): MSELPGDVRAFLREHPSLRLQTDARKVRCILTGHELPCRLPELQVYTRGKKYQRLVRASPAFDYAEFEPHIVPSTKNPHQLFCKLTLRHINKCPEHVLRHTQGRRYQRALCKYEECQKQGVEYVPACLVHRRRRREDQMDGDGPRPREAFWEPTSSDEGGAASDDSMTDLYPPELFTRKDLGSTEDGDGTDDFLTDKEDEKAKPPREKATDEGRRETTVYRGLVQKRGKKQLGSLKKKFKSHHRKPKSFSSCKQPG
UniProt O75683, sequence (O75683 whole entry): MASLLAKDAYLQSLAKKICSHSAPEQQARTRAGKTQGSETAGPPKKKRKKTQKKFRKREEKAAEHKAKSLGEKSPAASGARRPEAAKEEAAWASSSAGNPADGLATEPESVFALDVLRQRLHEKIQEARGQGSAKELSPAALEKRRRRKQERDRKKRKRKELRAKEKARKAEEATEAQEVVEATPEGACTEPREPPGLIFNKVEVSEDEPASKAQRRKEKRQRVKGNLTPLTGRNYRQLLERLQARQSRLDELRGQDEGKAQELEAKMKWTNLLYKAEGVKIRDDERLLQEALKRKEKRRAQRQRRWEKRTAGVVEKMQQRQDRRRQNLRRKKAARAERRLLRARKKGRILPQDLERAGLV
UniProt Q16563, sequence (Q16563 whole entry): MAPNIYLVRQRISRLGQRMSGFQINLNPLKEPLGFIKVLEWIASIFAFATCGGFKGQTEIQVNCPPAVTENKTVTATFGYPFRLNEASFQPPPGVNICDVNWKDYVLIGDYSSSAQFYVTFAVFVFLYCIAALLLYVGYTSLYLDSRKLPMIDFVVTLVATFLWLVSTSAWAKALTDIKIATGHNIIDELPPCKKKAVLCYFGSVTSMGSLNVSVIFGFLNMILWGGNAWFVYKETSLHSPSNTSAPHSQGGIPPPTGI
UniProt Q15526, sequence (Q15526 whole entry): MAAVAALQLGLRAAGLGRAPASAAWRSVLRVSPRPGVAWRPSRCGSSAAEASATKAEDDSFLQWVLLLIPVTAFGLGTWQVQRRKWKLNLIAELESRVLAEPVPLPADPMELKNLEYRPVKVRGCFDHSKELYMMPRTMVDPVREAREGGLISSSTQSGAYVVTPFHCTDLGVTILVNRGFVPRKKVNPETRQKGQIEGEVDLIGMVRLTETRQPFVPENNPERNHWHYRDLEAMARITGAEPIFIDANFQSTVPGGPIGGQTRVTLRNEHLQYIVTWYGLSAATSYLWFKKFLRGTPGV

Target	thermal stability z-score (lipoamide; [1])	thermal stability z-score (lipoamide; arsenate co-treatment: none)	thermal stability z-score (potassium arsenate)
SUPT5H (UniProt O00267)	0.685	-0.0241	-0.186
SUPT6H (UniProt Q7KZ85)	0.225	0.758	-1
SUPT16H (UniProt Q9Y5B9)	1.01	1.11	0.819
SUPV3L1 (UniProt Q8IYB8)	-0.171	-0.116	-0.478
SURF1 (UniProt Q15526)	-1.27	-0.521	0.165
SURF2 (UniProt Q15527)	-0.0697	0.247	-0.529
SURF4 (UniProt O15260)	-0.416	-0.214	-0.243
SURF6 (UniProt O75683)	-0.283	-1.48	-2.85
SUZ12 (UniProt Q15022)	-0.0278	-0.101	-0.186
SVIL (UniProt O95425)	0.00545	0.00211	0.279
SWAP70 (UniProt Q9UH65)	-0.295	0.217	0.3
SYAP1 (UniProt Q96A49)	0.0475	-0.0361	0.679
SYDE1 (UniProt Q6ZW31)	-0.177	-0.208	-0.278
SYF2 (UniProt O95926)	1.83	0.837	-0.951
SYMPK (UniProt Q92797)	0.324	0.338	-0.75
SYNCRIP (UniProt O60506)	0.0582	0.179	-0.00709
SYNE2 (UniProt Q8WXH0)	-0.0307	0.18	-0.123
SYNGR2 (UniProt O43760)	0.329	0.548	-0.0246

Target	thermal stability z-score (lipoamide; [1])	thermal stability z-score (lipoamide; arsenate co-treatment: none)	thermal stability z-score (potassium arsenate)
SYNJ1 (UniProt O43426)	0.305	-0.14	-0.277
SYNJ2 (UniProt O15056)	0.0806	0.0587	-0.0134
SYNJ2BP (UniProt P57105)	0.988	0.247	0.518
SYNRG (UniProt Q9UMZ2)	-0.398	-0.18	0.478
SYPL1 (UniProt Q16563)	0.951	-0.0774	0.425
SYVN1 (UniProt Q86TM6)	-2	-2.05	-0.421
SZRD1 (UniProt Q7Z422)	0.289	0.399	-0.0744
TAB1 (UniProt Q15750)	-0.188	-0.291	-0.294
TAB2 (UniProt Q9NYJ8)	0.0348	-0.0384	-0.292
TACC1 (UniProt O75410)	0.293	0.0761	0.526
TACC2 (UniProt O95359)	0.243	0.134	0.409
TACC3 (UniProt Q9Y6A5)	-0.148	-0.162	0.662
TACO1 (UniProt Q9BSH4)	0.0383	-0.0229	-0.113
TADA3 (UniProt O75528)	0.0748	0.099	0.199
TAF2 (UniProt Q6P1X5)	-0.03	-0.0592	-0.179
TAF6 (UniProt P49848)	-0.0822	-0.089	0.318
TAF7 (UniProt Q15545)	-0.3	-0.347	0.641
TAF15 (UniProt Q92804)	2.08	1.21	1.34
